This is an account of results in article PMC9853869, “The Myxobacterial Antibiotic Myxovalargin: Biosynthesis, Structural Revision, Total Synthesis, and Molecular Characterization of Ribosomal Inhibition” (Journal of the American Chemical Society, 2023).

In assay [1] the test system is M. tuberculosis MXV-SRM69 (rrl: t2847c, rrl: t2849g, Rv2935/ppsE: G146*). As to conditions: MXV-SRM69 (rrl: t2847c, rrl: t2849g, Rv2935/ppsE: G146*, 4 h).
Assay [2] deals with M. tuberculosis. The assay is classed as cell-based, Mycobacterium tuberculosis.

*1 amine or outer side, *2 acyl side, *3 side chain or, on linkers, in order; H or OH if unused. Where a SMILES comes first, the peptide text is derived from it. [ ]: non-standard residue; d: D form. The star is where a group is joined. X1 = O=C(C[C@H](N[*:1])c1ccc(O)cc1)[*:2]; dVal(3-OH) = CC(C)(O)[C@@H](N)C(=O)O; ΔIle(E) = CC/C(C)=C(/N)C(=O)O; Isovaleryl = CC(C)CC(=O)*; Agmatine = N=C(N)NCCCCN*; NMeA = CN[C@@H](C)C(=O)O; ΔVal = CC(C)=C(N)C(=O)O

For `CC/C(C)=C(/NC(=O)[C@H](NC(=O)[C@@H](NC(=O)[C@@H](CCCNC(=N)N)NC(=O)C(NC(=O)[C@H](NC(=O)C[C@H](NC(=O)[C@H](NC(=O)[C@H](NC(=O)[C@H](C)N(C)C(=O)[C@H](C)NC(=O)C(NC(=O)CC(C)C)=C(C)C)C(C)C)C(C)C)c1ccc(O)cc1)C(C)C)=C(C)C)C(C)C)C(C)C)C(=O)N[C@H](C)C(=O)N[C@@H](C(=O)NCCCCNC(=N)N)C(C)(C)O` [MyxA, Myxovalargin A] (Isovaleryl-[ΔVal]A[NMeA][dV][dV][X1][dV][ΔVal][dR]V[dV][ΔIle(E)][dA][dVal(3-OH)]-Agmatine), the minimal inhibitory concentration (MIC) – broadly, the least concentration at which growth counts as inhibited – in assay [1] was greater than 210 µg/mL. Also, in assay [2], the “MIC shift of resistant mutant strains” value was greater than 40 fold and the “frequency of spontaneous resistance mutants” value was ~6 × 10^–7.
